Experimental data from patent publication US8772321B2, “Heteroannelated anthraquinone derivatives for inhibiting cancers” (National Defense Medical Center, priority 2008, dated 2014).

Key:
HeLa cells [1] = test: Autophagosome formation, GFP-LC3 fluorescence microscopy; type: cell-based, human; settings: HeLa cells transfected with GFP-LC3; 2.5 μM NSC745885, 12 hours
Method: In FIG. 5B, HeLa cells were transfected with 0.25 μg of an expression vector for GFP-LC3 for 24 hours and then treated with 2.5 μM NSC745885 for 12 hours. […] Vehicle (DMSO) and spermidine (Spd) were used as a negative and positive control, respectively.
(§1) In FIGS. 5C and 5D, HeLa cells were incubated with 2.5 μM NSC745885 for 24 hours. After 48 hours, cells were subjected to SA-β-galactosidase staining (FIG. 5C) and approximately 100 stained cells were quantified (*P<0.05; ** P<0.01; *** P<0.005). NSC745885 induced senescence at a rate of 25% (P=0.0085 compared to DMSO). (FIG. 5D) LC3B-I fragments were observed when the cells were exposed to the drug for longer period of time (FIG. 5A, panel labeled as LE). […] We also treated Hela cells with the autophagy inducer spermidine (Spd) and vehicle (DMSO), which act as the positive and the negative control, respectively.

60 cancer cell lines = test: NCI 60-cell one dose screen, whole panel; type: cell-based, human; settings: 10^−5M
Method: (§2) NSC745885 was studied as a prototype for anti-proliferative activity against human cancer cell lines in NCI Drug Screen Program (Table 1, below). NSC745885 was evaluated in the full panel of human tumor cell lines derived from nine cancer cell types (leukemia, non-small cell lung cancer, colon cancer, CNS cancer, prostate cancer, melanoma, ovarian cancer, renal cancer and breast cancer). Each subpanel uses several cell lines and dose-response curves were drawn against the decadic logarithm (log 10) of the corresponding drug concentrations for each cell line by the subpanel group. They were also evaluated in the 60 cell line panel and anticancer assay was performed in accordance with the protocol of developmental therapeutics program (one dose mean graph). Results for each compound were reported as the proliferation percentage of the treated cells with that of the untreated control cells being 100. For each of these parameters the averaged values of mean graph midpoint (MG_MID) were calculated.

M14 = test: NCI 60-cell one dose screen; type: cell-based, human; settings: M14 (Melanoma); 10^−5M
Method: as §2

SK-MEL-28 = test: NCI 60-cell one dose screen; type: cell-based, human; settings: SK-MEL-28 (Melanoma); 10^−5M
Method: as §2

CCRF-CEM = test: NCI 60-cell one dose screen; type: cell-based, human; settings: CCRF-CEM (Leukemia); 10^−5M
Method: as §2

CAK1-1 [2] = test: NCI 60-cell one dose screen; type: cell-based, human; settings: CAK1-1 (Renal cancer); 10^−5M
Method: as §2

HT29 = test: NCI 60-cell one dose screen; type: cell-based, human; settings: HT29 (Colon cancer); 10^−5M
Method: as §2

UO-31 = test: NCI 60-cell one dose screen; type: cell-based, human; settings: UO-31 (Renal cancer); 10^−5M
Method: as §2

RPMI-8226 = test: NCI 60-cell one dose screen; type: cell-based, human; settings: RPMI-8226 (Leukemia); 10^−5M
Method: as §2

A498 = test: NCI 60-cell panel dose-response; type: cell-based; settings: Homo sapiens; A498 (Renal cancer)
CAK1-1 [3] = test: NCI 60-cell panel dose-response; type: cell-based; settings: CAK1-1 (Renal cancer)
telomerase = test: PCR-based telomerase assay, TRAP (telomeric repeat amplification protocol); type: biochemical
Excerpt: Binding of low-molecular weight ligands to quadruplexes was first studied with the classic DNA intercalator ethidium and the telomere sequence T4G4 from Oxytricha. It is apparent that G-quadruplexes, with their unique structural, electrostatic and hydrogen bonding features, are the more likely targets for drug action rather than typical duplex or triplex DNA. […] To evaluate the effects of these derivatives on telomerase inhibition, we used PCR-based telomerase assay and TRAP (telomeric repeat amplification protocol) assay at a compound concentration of 100 μM.

HeLa cells [4] = test: DNA damage, immunoblot of γ-phosphorylation of histone H2A.X; type: cell-based, human; settings: various doses, 12 hour
Method: The anthracyclin antibiotic agent doxorubicin (DXR) is an active cytotoxic reagent with a wide range of clinical indications, including treatment of solid tumors in the ovary, breast, and gastrointestinal systems, as well as treatment of liquid tumors such as leukemia. […] Specifically, HeLa cells were treated with NSC745885 at various doses for 12 hour. The phosphorylation of γ-H2A.X was subsequently detected by the immunoblot.
(§3) Cell lysates were prepared in lysis buffer (100 mM Tris-HCl pH 8.0, 150 mM NaCl, 0.1% SDS, and 1% Triton 100) at 4° C., separated by sodium dodecyl sulfate-polyacrylamide gel electrophoresis (SDS-PAGE), and then transferred onto a polyvinylidine difluoride membrane (Millipore, USA). Proteins were detected using antibodies against alpha actinin (ACTN), proliferating cell nuclear antigen (PCNA), p53, p21, cyclin B1, and cyclin D1 (Santa Cruz Biotechnology, USA), YH2A.X (EP854(2)Y, Epitomics, USA), cleaved caspase 3, cleaved poly(ADP-ribose) polymerase (PARP) and LC3B-II (Cell signaling, USA).

HeLa cells [5] = test: Senescence-associated β-galactosidase staining; type: cell-based, human; settings: 2.5 μM for 24 hours, stained after 48 hours
Method: Cultured cells were washed in PBS (pH 7.4), incubated in a solution of 2% formaldehyde/0.2% glutaraldehyde, and then incubated overnight at 37° C. in freshly prepared staining solution consisting of 1 mg/mL X-gal (5-bromo-4-chloro-3-indolyl-β-D-galactoside), 5 mM K3Fe(CN)6, 5 mM K4Fe(CN)6, 150 mM NaCl and 2 mM MgCl2 in 40 mM citric acid/sodium phosphate, pH 6.0. Following this incubation, cells were washed with water and examined by light microscopy at 200× magnification.
as §1

HeLa cells [6] = test: Autophagy: LC3B-II immunoblot; type: cell-based, human; settings: 12 hours
Method: as §3
Altered intracellular localization of LC3B (LC3B-I) and increased electrophoretic mobility of LC3B (LC3B-II) are correlated with recruitment to autophagic membranes and can be used as molecular markers for autophagic activation.
In FIG. 5A, HeLa cells were treated with the indicated concentrations of DXR, NSC745885 for 12 hours, and then cell lysates were analyzed by immunoblot using antibodies directed against LC3. The results are representative of three independent experiments.

OVCAR-3 = test: NCI 60-cell panel dose-response; settings: Homo sapiens, OVCAR-3, read-out: LC50
HL-60(TB) = test: NCI 60-cell panel dose-response; type: cell-based, human; settings: HL-60(TB) (Leukemia)

With O=C1c2ccccc2C(=O)c2c1ccc1nsnc21 [NSC745885, anthra[2,1-c][1,2,5]thiadiazole-6,11-dione] the “autophagosome formation (LC3 aggregation, GFP-LC3)” value (HeLa cells [1]) was “autophagosome formation”, the “proliferation percentage, Delta” value (60 cancer cell lines; delta of the one dose mean graph) was 102.68% and the “proliferation percentage, Mean” value (60 cancer cell lines; mean over the cell lines) was 2.68%. For the same compound, the “proliferation percentage, Range” value (60 cancer cell lines; range over the cell lines) was 230.09%, the proliferation percentage (M14) was 74.54% and the proliferation percentage (SK-MEL-28) was 15.47%. For the same compound, the proliferation percentage (CCRF-CEM) was −30.81%, the proliferation percentage (CAK1-1 [2]) was 1.97% and the proliferation percentage (HT29) was 116.95%. It also gave a proliferation percentage (UO-31) of −79.30%, a proliferation percentage (RPMI-8226) of −27.97% and a GI50 (A498) of 12.4 µM. It also gave a TGI (CAK1-1 [3]) of 2.96 µM, a GI50 (CAK1-1 [3]; Homo sapiens, 60 cell) of 1.61 µM and a CC50 (CAK1-1 [3]; Homo sapiens, 60 cell, read-out: LC50 (the source's name)) of 5.44 µM. The “telomerase activity (TRAP lane pattern)” value (telomerase; 100 μM, H1299 cell extract) was “little different from positive control”, the “telomerase inhibitory activity level” value (telomerase; H1299 cells, TRAP) was “activity at the micromolar level” and the “DNA damage (phosphorylation of γ-H2A.X, immunoblot)” value (HeLa cells [4]) was “strongly induced DNA damage”. For the same compound, the “senescence rate (SA-β-galactosidase staining)” value (HeLa cells [5]) was 25%, the “LC3B-II fragment formation (autophagic activation)” value (HeLa cells [6]) was “LC3B-II fragment formation” and the CC50 (OVCAR-3) was 11.1 µM. It also gave a GI50 (HL-60(TB)) of 0.16 µM and a TGI (HL-60(TB)) of 0.40 µM.
